Data as given in ChEMBL document CHEMBL1201862, “PubChem BioAssay data set” (2004).
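96-well plates; 48 h exposure; 5 concentrations. Endpoints by linear interpolation between flanking doses. Not reached: highest tested concentration assigned. Here, GI50 denotes the concentration required for 50% inhibition of growth.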 Activity calls are given as the source filed them. Cut-off read from the data, not from the text of the source: active = GI50 up to about 1.1 µM and inactive = higher.

How the values were obtained:
Test in all cases: inhibition of tumour cell growth, NCI panel, 48 h
[1] = tested on: HCT-15
[2] = tested on: NCI-H522
[3] = tested on: SK-MEL-2
[4] = tested on: RXF 393
[5] = tested on: K562
[6] = tested on: COLO 205
[7] = tested on: U-251
[8] = tested on: NCI-H23
[9] = tested on: NCI-H226
[10] = tested on: SK-OV-3
[11] = tested on: MOLT-4
[12] = tested on: HCC 2998
[13] = tested on: SN12C
[14] = tested on: OVCAR-8
[15] = tested on: HOP-92
[16] = tested on: CAKI-1
[17] = tested on: UACC-62
[18] = tested on: TK-10
[19] = tested on: SNB-75
[20] = tested on: ACHN

| SMILES | GI50 [1] [µM] | GI50 [2] | GI50 [3] | GI50 [4] | GI50 [5] | GI50 [6] | GI50 [7] | GI50 [8] | GI50 [9] | GI50 [10] | GI50 [11] | GI50 [12] | GI50 [13] | GI50 [14] | GI50 [15] | GI50 [16] | GI50 [17] | GI50 [18] | GI50 [19] | GI50 [20] |
| --- | --- | --- | --- | --- | --- | --- | --- | --- | --- | --- | --- | --- | --- | --- | --- | --- | --- | --- | --- | --- |
| CCSC(=O)N1c2ccc(OC)cc2C=CC1C#N (stereo not drawn) | 0.00734 | 0.00698 µM (active) | < 0.01 µM (active) | 0.1 µM (active) | 0.00632 µM (active) | 0.00298 µM (active) | 0.00403 µM (active) | 0.00509 µM (active) | 0.00759 µM (active) | 0.00425 µM (active) | 0.00345 µM (active) | 0.00895 µM (active) | 0.00782 µM (active) | 0.00569 µM (active) | 0.1 µM (active) | < 0.01 µM (active) | 0.00877 µM (active) | 0.00971 µM (active) | 0.00417 µM (active) | 0.0041 µM (active) |
| CN(C)c1ccc(C=c2c3ccccc3n3c2c2ccccc2[n+]3C)cc1 | 0.456 | 0.174 µM (active) | 0.258 µM (active) | 1.52 µM (inactive) | 0.134 µM (active) | 0.0682 µM (active) | 0.196 µM (active) | 1.01 µM (active) | 3.08 µM (inactive) | 2.64 µM (inactive) | 0.493 µM (active) | 0.671 µM (active) | 0.518 µM (active) | 0.364 µM (active) | 0.421 µM (active) | 1.08 µM (active) | 0.305 µM (active) | 1.2 µM (inactive) | 2.17 µM (inactive) | 0.867 µM (active) |
| CC(=O)NC1C(OCc2ccccc2)OC(CO)C(O)C1OC(C)C(=O)N[C@@H](C)C(=O)N[C@H](CCC(=O)OCCNc1c2ccccc2nc2cccc([N+](=O)[O-])c12)C(N)=O (stereo partly drawn) | 0.000166 | 0.00174 µM (active) | 0.00211 µM (active) | 0.0012 µM (active) | 0.00094 µM (active) | 0.00111 µM (active) | – | 0.00148 µM (active) | 0.00548 µM (active) | 0.00711 µM (active) | 0.00385 µM (active) | 0.000681 µM (active) | 0.00531 µM (active) | 0.00235 µM (active) | 0.00178 µM (active) | 0.00625 µM (active) | 0.000451 µM (active) | 0.00344 µM (active) | 0.0114 µM (active) | 0.00145 µM (active) |
| Cc1nc2nnc(CCCCCCCCc3nnc4nc(C)[nH]n34)n2[nH]1 | > 100 | 60.5 µM (inactive) | > 100 µM (inactive) | > 100 µM (inactive) | > 100 µM (inactive) | > 100 µM (inactive) | > 100 µM (inactive) | > 100 µM (inactive) | > 100 µM (inactive) | > 100 µM (inactive) | > 100 µM (inactive) | > 100 µM (inactive) | > 100 µM (inactive) | > 100 µM (inactive) | > 100 µM (inactive) | > 100 µM (inactive) | – | > 100 µM (inactive) | > 100 µM (inactive) | > 100 µM (inactive) |
| O=C1/C(=C\c2ccccc2)c2ccccc2N1Cc1ccccc1 | 9.46 | 10.1 µM (inactive) | 12.2 µM (inactive) | 10.4 µM (inactive) | 2.88 µM (inactive) | 16.6 µM (inactive) | 8.69 µM (inactive) | 10.7 µM (inactive) | 10.8 µM (inactive) | 11.1 µM (inactive) | 2.67 µM (inactive) | 11.8 µM (inactive) | 11.9 µM (inactive) | 11.6 µM (inactive) | 3.85 µM (inactive) | 6.67 µM (inactive) | 7.1 µM (inactive) | 12.9 µM (inactive) | 9.66 µM (inactive) | 12.5 µM (inactive) |
| O=C1CS(=O)(=O)C(c2cccc(Oc3ccccc3)c2)N1c1ccccc1 (stereo not drawn) | 22 | 18.9 µM (inactive) | 16.1 µM (inactive) | 19.3 µM (inactive) | 14.4 µM (inactive) | 20 µM (inactive) | 16.6 µM (inactive) | 25.1 µM (inactive) | 21.4 µM (inactive) | 35.2 µM (inactive) | 20.4 µM (inactive) | 16.9 µM (inactive) | 19.4 µM (inactive) | 27 µM (inactive) | 14.6 µM (inactive) | 20.5 µM (inactive) | 12.4 µM (inactive) | 26.6 µM (inactive) | 34.1 µM (inactive) | 23.7 µM (inactive) |
| NS(=O)(=O)c1ccc(NNc2c3ccccc3nc3c(C(=O)Nc4ccc(S(=O)(=O)Nc5ncccn5)cc4)cccc23)cc1 | > 25 | > 25 µM (inactive) | > 25 µM (inactive) | > 25 µM (inactive) | > 25 µM (inactive) | > 25 µM (inactive) | > 25 µM (inactive) | > 25 µM (inactive) | > 25 µM (inactive) | > 25 µM (inactive) | > 25 µM (inactive) | > 25 µM (inactive) | > 25 µM (inactive) | > 25 µM (inactive) | > 25 µM (inactive) | > 25 µM (inactive) | > 25 µM (inactive) | > 25 µM (inactive) | 20.2 µM (inactive) | > 25 µM (inactive) |
| NNC(=O)c1c(SCc2ccccc2)nc2c3ccccc3ccn12 | 5.66 | 15.5 µM (inactive) | 28.3 µM (inactive) | 15.2 µM (inactive) | 14.7 µM (inactive) | 23.9 µM (inactive) | 17.7 µM (inactive) | 21.2 µM (inactive) | 22.1 µM (inactive) | 27.1 µM (inactive) | 10.9 µM (inactive) | 46.8 µM (inactive) | 17 µM (inactive) | 30.5 µM (inactive) | 17 µM (inactive) | 15 µM (inactive) | 10.2 µM (inactive) | 30.9 µM (inactive) | – | 27.2 µM (inactive) |
| CCOCC(=O)N[C@H]1CCc2cc(OC(=O)COCC)c(OC)c(OC)c2-c2ccc(SC)c(=O)cc21 | 0.0551 | 0.0151 µM (active) | 0.019 µM (active) | 0.021 µM (active) | 0.0126 µM (active) | 0.0219 µM (active) | 0.0275 µM (active) | 0.0273 µM (active) | 0.0301 µM (active) | 0.00867 µM (active) | 0.0269 µM (active) | 0.0264 µM (active) | 0.0625 µM (active) | 0.0307 µM (active) | 0.0248 µM (active) | 0.15 µM (active) | 0.0102 µM (active) | 0.459 µM (active) | 0.0461 µM (active) | 0.0655 µM (active) |
| CC(=O)NNc1nc(C)c(C(=O)/C=C/c2cccc([N+](=O)[O-])c2)s1 | > 100 | > 100 µM (inactive) | > 100 µM (inactive) | > 100 µM (inactive) | > 100 µM (inactive) | > 100 µM (inactive) | > 100 µM (inactive) | > 100 µM (inactive) | > 100 µM (inactive) | > 100 µM (inactive) | > 100 µM (inactive) | > 100 µM (inactive) | > 100 µM (inactive) | > 100 µM (inactive) | > 100 µM (inactive) | > 100 µM (inactive) | > 100 µM (inactive) | > 100 µM (inactive) | – | – |
| Cc1cc(O)cc(O)c1/N=N/c1ccc([N+](=O)[O-])cc1 | 6.87 | 3.48 µM (inactive) | 15.4 µM (inactive) | 10.6 µM (inactive) | 3.27 µM (inactive) | 30.5 µM (inactive) | 16.7 µM (inactive) | 17.7 µM (inactive) | – | > 100 µM (inactive) | 5.3 µM (inactive) | 10.4 µM (inactive) | 5.71 µM (inactive) | 17.9 µM (inactive) | 2.39 µM (inactive) | 14.2 µM (inactive) | 12.9 µM (inactive) | 23.9 µM (inactive) | 18.5 µM (inactive) | 17.1 µM (inactive) |
| Cn1c(SCc2c[nH]c3ccccc23)nnc1-c1ccc(Cl)cc1Cl | 12.1 | 12.7 µM (inactive) | 12.3 µM (inactive) | 12.2 µM (inactive) | 4.23 µM (inactive) | 14 µM (inactive) | 15.1 µM (inactive) | 23.8 µM (inactive) | – | 15.9 µM (inactive) | 7.36 µM (inactive) | 12 µM (inactive) | 17.1 µM (inactive) | 21.2 µM (inactive) | 12.6 µM (inactive) | 20 µM (inactive) | 12 µM (inactive) | 17.1 µM (inactive) | 1.29 µM (inactive) | 23.9 µM (inactive) |
| CCOC(=O)C1C=C2O[C@@H]3OC4(CCCCC4)O[C@@H]3C2[C@H]2C(=O)C=CC(=O)[C@@]12C(=O)OC (stereo partly drawn) | 9.4 | 3.98 µM (inactive) | 16.1 µM (inactive) | 1.66 µM (inactive) | 5.45 µM (inactive) | 8.61 µM (inactive) | 8.69 µM (inactive) | 16.3 µM (inactive) | 20.6 µM (inactive) | 18.2 µM (inactive) | 2.7 µM (inactive) | 14.3 µM (inactive) | 16.7 µM (inactive) | 6.41 µM (inactive) | 12.2 µM (inactive) | 16 µM (inactive) | 16.8 µM (inactive) | 13.6 µM (inactive) | 19.4 µM (inactive) | 18.1 µM (inactive) |
| C[O+]=C1C=CC(=C2SC(c3ccccc3)(c3ccccc3)c3ccccc32)C=C1.[O-][Cl+3]([O-])([O-])[O-] | 10.9 | 20.7 µM (inactive) | 15.6 µM (inactive) | 11.8 µM (inactive) | 26.7 µM (inactive) | 17.3 µM (inactive) | 22.6 µM (inactive) | 21.1 µM (inactive) | 14.5 µM (inactive) | 38 µM (inactive) | 13.1 µM (inactive) | 26.5 µM (inactive) | 20 µM (inactive) | 32.1 µM (inactive) | 16.6 µM (inactive) | 30.9 µM (inactive) | 18.7 µM (inactive) | 23.4 µM (inactive) | 26.9 µM (inactive) | 24.8 µM (inactive) |
